Measured values published in ChEMBL document CHEMBL4007459, “Design of Potent mRNA Decapping Scavenger Enzyme (DcpS) Inhibitors with Improved Physicochemical Properties To Investigate the Mechanism of Therapeutic Benefit in Spinal Muscular Atrophy (SMA)” (J Med Chem, 2017).
≈ marks a conversion by molar mass, not a printed value. Values belong to the compound of their own block, whether it stands above or below them.

Key:
Dihydrofolate reductase = molecular target: T1, Dihydrofolate reductase (Homo sapiens, UniProt P00374); assay: Inhibition of DHFR (unknown origin)
T1 sequence (P00374 whole entry): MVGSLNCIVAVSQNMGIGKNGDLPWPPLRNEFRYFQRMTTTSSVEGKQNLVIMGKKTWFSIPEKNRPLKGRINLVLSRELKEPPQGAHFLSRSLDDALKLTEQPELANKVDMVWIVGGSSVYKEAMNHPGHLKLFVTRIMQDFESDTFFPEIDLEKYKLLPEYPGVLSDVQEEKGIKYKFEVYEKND

[1] = Drug uptake in HEK293 cells at 10 nM in presence of vacuolar type ATPase inhibitor bafilomycin measured after […]; format: ADME, cell-based; settings: human, 0.01 µM
[2] = Drug uptake in HEK293 cells at 10 nM in presence of vacuolar type ATPase inhibitor concanamycin A measured after […]; format: ADME, cell-based; settings: human, 0.01 µM
[3] = Drug uptake in lymphoblasts (unknown origin) at 10 nM in presence of vacuolar type ATPase inhibitor concanamycin A measured after […]; format: ADME, cell-based; settings: lymphoblast, 0.01 µM
[4] = Drug uptake in lymphoblasts (unknown origin) at 10 nM in presence of vacuolar type ATPase inhibitor bafilomycin measured after […]; format: ADME, cell-based; settings: lymphoblast, 0.01 µM
[5] = Apparent intrinsic clearance in human liver microsomes at 1 uM; format: ADME, microsome; settings: read-out: CLH(app)
[6] = Apparent passive permeability across apical to basolateral side in RRCK2 cells at 2 uM; format: ADME, cell-based, Canis lupus familiaris; settings: dog, MDCK
[7] = Kinetic solubility of the compound at pH 6.5; settings: buffer
[8] = Lipophilicity, log D of the compound at pH 7.4; format: physicochemical; settings: buffer
[9] = Stability in human liver microsomes at 1 uM; format: ADME, microsome; settings: read-out: Stability
m7GpppX diphosphatase = molecular target: T2, m7GpppX diphosphatase (Homo sapiens, UniProt Q96C86)
T2 sequence (Q96C86 whole entry): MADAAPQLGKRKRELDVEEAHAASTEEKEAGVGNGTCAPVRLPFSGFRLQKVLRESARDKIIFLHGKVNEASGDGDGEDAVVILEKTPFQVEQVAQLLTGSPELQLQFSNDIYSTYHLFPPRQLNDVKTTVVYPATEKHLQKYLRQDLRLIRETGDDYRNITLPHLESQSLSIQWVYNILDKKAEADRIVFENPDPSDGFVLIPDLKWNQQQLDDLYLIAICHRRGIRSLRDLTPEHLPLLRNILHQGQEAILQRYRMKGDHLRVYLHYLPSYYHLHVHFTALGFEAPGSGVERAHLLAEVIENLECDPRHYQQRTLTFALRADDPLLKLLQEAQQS
Description: Inhibition of human DcpS assessed as increase in SMN2 promoter activity

Plasma = assay: Unbound fraction in FVB/N mouse plasma at 30 mg/kg, ip; format: ADME, organism-based; settings: in vivo
[10] = Drug uptake in HEK293 cells at 100 nM in presence of vacuolar type ATPase inhibitor concanamycin A measured after […]; format: ADME, cell-based; settings: human, 0.1 µM
[11] = Drug uptake in HEK293 cells at 100 nM in presence of vacuolar type ATPase inhibitor bafilomycin measured after […]; format: ADME, cell-based; settings: human, 0.1 µM
[12] = Drug uptake in lymphoblasts (unknown origin) at 100 nM in presence of vacuolar type ATPase inhibitor concanamycin A measured after […]; format: ADME, cell-based; settings: lymphoblast, 0.1 µM
[13] = Drug uptake in lymphoblasts (unknown origin) at 100 nM in presence of vacuolar type ATPase inhibitor bafilomycin measured after […]; format: ADME, cell-based; settings: lymphoblast, 0.1 µM

IC50 (Dihydrofolate reductase): > 50 µM
SMILES: Nc1nc(N)c2c(COc3ccc(F)cc3F)cccc2n1

Drug uptake [1]: Not Active | Drug uptake [2]: Not Active | Drug uptake [3]: Not Active | Drug uptake [4]: Not Active
SMILES: Nc1nc(N)c2c(OCC3CCN(Cc4ccccc4F)CC3)cccc2n1

IC50 (Dihydrofolate reductase): > 30 µM
SMILES: Nc1nc(N)c2c(COc3ccccc3F)cccc2n1

IC50 (Dihydrofolate reductase): 38 µM
SMILES: Nc1nc(N)c2c(COc3cccc(Cl)c3)cccc2n1

IC50 (Dihydrofolate reductase): 0.63 µM
SMILES: Nc1nc(N)c2c(OCc3cc(F)cc(F)c3)cccc2n1

Drug uptake [1]: Not Active | Drug uptake [2]: Not Active | Drug uptake [3]: Not Active | Drug uptake [4]: Not Active | IC50 (Dihydrofolate reductase): > 150 µM | microsomal CLint at 1 µM [5]: < 8 µL/min/mg | Papp A→B at 2 µM [6]: 180 nm/s | solubility kinetic [7]: 274 µM (≈ 77.1 µg/mL) | logD [8]: 1.4 | half-life at 1 µM [9]: > 120 min
SMILES: Cc1ncccc1OCc1cccc2nc(N)nc(N)c12

IC50 (Dihydrofolate reductase): > 50 µM
SMILES: Nc1nc(N)c2c(COc3cccc(F)c3)cccc2n1

IC50 (Dihydrofolate reductase): 28 µM
SMILES: Nc1nc(N)c2c(OCC3CCOCC3)cccc2n1

Drug uptake [1]: Not Active | Drug uptake [2]: Not Active | Drug uptake [3]: Not Active | Drug uptake [4]: Not Active | microsomal CLint at 1 µM [5]: > 250 µL/min/mg | Papp A→B at 2 µM [6]: 6.2 nm/s | solubility kinetic [7]: 45 µM (≈ 19.5 µg/mL) | logD [8]: 2.8 | half-life at 1 µM [9]: 3 min
SMILES: Nc1nc(N)c2c(OCC3CCN(Cc4c(Cl)cccc4Cl)CC3)cccc2n1

IC50 (Dihydrofolate reductase): 15 µM
SMILES: CC1(COc2cccc3nc(N)nc(N)c23)COC1

IC50 (m7GpppX diphosphatase): > 10 µM
SMILES: Cc1cc(OCC2CCOCC2)c2c(N)nc(N)nc2c1

IC50 (Dihydrofolate reductase): 52 µM | microsomal CLint at 1 µM [5]: < 8.4 µL/min/mg | Papp A→B at 2 µM [6]: 130 nm/s | solubility kinetic [7]: 31 µM (≈ 9.59 µg/mL) | logD [8]: 1.9 | Cp(f) (Plasma): 0.173 µM | half-life at 1 µM [9]: > 115 min
SMILES: N#Cc1cc(F)cc(OCc2cccc3nc(N)nc(N)c23)c1

Drug uptake [1]: Not Active | Drug uptake [2]: Not Active | Drug uptake [3]: Not Active | Drug uptake [4]: Not Active
SMILES: Nc1nc(N)c2c(OCC3CCN(Cc4c(F)cccc4Cl)CC3)cccc2n1

IC50 (Dihydrofolate reductase): 1.4 µM
SMILES: COC[C@H](C)Oc1cccc2nc(N)nc(N)c12

IC50 (Dihydrofolate reductase): 25 µM
SMILES: COC[C@@H](C)Oc1cccc2nc(N)nc(N)c12

IC50 (m7GpppX diphosphatase): > 10 µM
SMILES: Cc1cc(COc2cc(F)cc(C#N)c2)c2c(N)nc(N)nc2c1

Drug uptake [10]: Not Active | Drug uptake [11]: Not Active | Drug uptake [12]: Not Active | Drug uptake [13]: Not Active
SMILES: CCN(CC)CCCC(C)Nc1ccnc2cc(Cl)ccc12 (centres undefined) [CHLOROQUINE]
